Target: human GluN1/GluN2B NMDA receptors (Homo sapiens, UniProt Q05586+Q13224)
Assay: Cell-based calcium flux (FLIPR) assay on cloned human GluN1/GluN2B ion channels expressed in mammalian cells
Details: standard assay; glutamate ~EC40, 10 μM glycine; stable Tet-On cell line
Protocol: 5.3. Biological Assays: Effect of Compounds of Formula (I) on Cloned Human GluN1/GluN2B Ion Channels Expressed in Mammalian Cells
NMDA receptors are ion channels that are highly permeable to Ca^2+ ions, rendering it possible to monitor NMDA receptor function using cell-based calcium flux assay. In this assay, co-agonists glutamate and glycine are added to cells heterologously expressing human GluN1/GluN2B NMDA receptors to initiate cellular Ca^2+ influx. The time course of the changes in intracellular calcium is measured using a fluorescent dye and a FLIPR (Fluorometric Imaging Plate Reader) device.
Twenty four hours before measurements, the expression of the NMDA receptors in the stable cell line is induced with Tet-On inducible system in the presence of a non-selective NMDA receptor blocker. On the day of the experiment, cell culture media is carefully washed and the cells are loaded with Calcium 5 Dye Kit (Molecular Devices) in dye loading buffer containing 137 mM NaCl, 4 mM KCl, 2 mM CaCl2, 0.5 mM MgCl2 (standard assay) or 1.5 mM MgCl2 (HTS assay), 10 mM HEPES and 5 mM D-glucose; pH 7.4. After 1 h incubation at the room temperature, the dye is washed away with the assay buffer (137 mM NaCl (standard assay) or 150 mM (HTS assay), 4 mM KCl (standard assay) or 3 mM (HTS assay), 2 mM CaCl2, 0.01 mM EDTA, 10 mM HEPES and 5 mM D-glucose; pH 7.4) In the FLIPR TETRA reader, various concentrations of the test compounds are added to the cells for 5 min while fluorescence is monitored to detect potential agonist activity. Next, co-agonists, glutamate and glycine are added for another 5 minutes. The concentration of glutamate corresponding to ˜EC40 (standard assay) or EC40 (HTS assay) is used to maximize the assay's signal window and ability to detect NMDA receptor antagonists and negative allosteric modulators. A saturating concentration (10 μM) of glycine is also present in the assay. A non-selective NMDA receptor antagonist, (+)MK-801 is used as a positive control for antagonist activity. The fluorescent signal in the presence of test compounds is quantified and normalized to the signal defined by the appropriate control wells.

human GluN1/GluN2B NMDA receptors, sequence (Q13224 27-1484, other chains not shown): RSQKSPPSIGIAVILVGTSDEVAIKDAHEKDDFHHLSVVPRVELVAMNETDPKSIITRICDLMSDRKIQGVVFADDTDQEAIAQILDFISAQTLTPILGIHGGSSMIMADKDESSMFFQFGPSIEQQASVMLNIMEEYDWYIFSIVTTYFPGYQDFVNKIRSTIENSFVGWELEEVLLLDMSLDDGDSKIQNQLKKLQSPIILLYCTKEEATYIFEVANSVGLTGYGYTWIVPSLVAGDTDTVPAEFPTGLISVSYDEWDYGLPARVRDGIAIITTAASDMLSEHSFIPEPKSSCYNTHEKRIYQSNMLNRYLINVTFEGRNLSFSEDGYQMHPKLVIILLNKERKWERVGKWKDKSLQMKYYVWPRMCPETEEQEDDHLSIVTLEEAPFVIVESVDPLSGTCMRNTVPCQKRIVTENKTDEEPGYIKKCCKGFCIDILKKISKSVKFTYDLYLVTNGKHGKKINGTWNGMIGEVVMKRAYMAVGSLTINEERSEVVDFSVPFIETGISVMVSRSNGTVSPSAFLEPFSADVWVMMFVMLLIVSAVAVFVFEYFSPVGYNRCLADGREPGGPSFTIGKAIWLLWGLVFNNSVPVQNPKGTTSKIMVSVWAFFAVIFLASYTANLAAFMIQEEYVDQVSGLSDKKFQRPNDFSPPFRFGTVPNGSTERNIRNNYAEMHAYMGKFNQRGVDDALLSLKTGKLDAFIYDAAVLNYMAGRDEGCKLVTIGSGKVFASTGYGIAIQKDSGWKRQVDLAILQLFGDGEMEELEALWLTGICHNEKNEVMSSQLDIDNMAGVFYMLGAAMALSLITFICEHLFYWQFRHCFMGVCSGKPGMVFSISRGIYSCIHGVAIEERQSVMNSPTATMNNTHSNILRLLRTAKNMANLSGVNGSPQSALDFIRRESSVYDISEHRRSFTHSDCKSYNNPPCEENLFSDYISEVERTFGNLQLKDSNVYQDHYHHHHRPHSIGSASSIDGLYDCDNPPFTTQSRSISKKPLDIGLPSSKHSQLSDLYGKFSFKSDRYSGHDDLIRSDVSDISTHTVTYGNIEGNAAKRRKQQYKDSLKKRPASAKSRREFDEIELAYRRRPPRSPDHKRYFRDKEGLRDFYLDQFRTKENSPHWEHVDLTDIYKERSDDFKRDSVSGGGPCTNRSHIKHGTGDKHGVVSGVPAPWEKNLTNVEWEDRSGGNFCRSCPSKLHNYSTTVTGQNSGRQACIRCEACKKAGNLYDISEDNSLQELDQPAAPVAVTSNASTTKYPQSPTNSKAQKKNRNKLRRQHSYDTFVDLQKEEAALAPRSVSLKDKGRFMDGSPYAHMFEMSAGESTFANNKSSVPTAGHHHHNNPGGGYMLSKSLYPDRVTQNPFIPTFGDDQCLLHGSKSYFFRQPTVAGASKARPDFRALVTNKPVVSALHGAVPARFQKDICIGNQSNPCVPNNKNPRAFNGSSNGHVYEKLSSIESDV

| Structure (SMILES) | IC50 [nM] |
| --- | --- |
| CC1CN(Cc2cncc(-c3ccc(F)c(OC(F)F)c3)c2)C(=O)O1 (racemic) [Example 6, (R/S)-3-[[5-[3-(Difluoromethoxy)-4-fluoro-phenyl]-3-pyridyl]methyl]-5-methyl-oxazolidin-2-one] | 15 |
| Cc1ncc(-c2ccc(F)c(OC(F)F)c2)cc1CN1C(=O)OCC1C (racemic) [Example 81, (R/S)-3-[[5-[3-(Difluoromethoxy)-4-fluoro-phenyl]-2-methyl-3-pyridyl]methyl]-4-methyl-oxazolidin-2-one] | 79 |
| CC1CN(Cc2cncc(-c3ccc(F)c(OC(F)F)c3)c2)C(=O)O1 (single isomer, unassigned) [Example 8, (R*)-3-[[5-[3-(Difluoromethoxy)-4-fluoro-phenyl]-3-pyridyl]methyl]-5-methyl-oxazolidin-2-one] | 11 |
| CC(C)C1CN(Cc2cncc(-c3ccc(F)c(OC(F)F)c3)c2)C(=O)O1 (single isomer, unassigned) [Example 15, (R*)-3-[[5-[3-(Difluoromethoxy)-4-fluoro-phenyl]-3-pyridyl]methyl]-5-isopropyl-oxazolidin-2-one] | 45 |
| CC(C)C1CN(Cc2cncc(-c3ccc(F)c(OC(F)F)c3)c2)C(=O)O1 (single isomer, unassigned) [Example 16, (S*)-3-[[5-[3-(Difluoromethoxy)-4-fluoro-phenyl]-3-pyridyl]methyl]-5-isopropyl-oxazolidin-2-one] | 52 |
| O=C1OC(CN2CCOCC2)CN1Cc1cncc(-c2ccc(F)c(OC(F)F)c2)c1 (single isomer, unassigned) [Example 18, (R*)-3-[[5-[3-(Difluoromethoxy)-4-fluoro-phenyl]-3-pyridyl]methyl]-5-(morpholinomethyl)oxazolidin-2-one] | 751 |
| C[C@@H]1CN(Cc2cncc(-c3ccc(F)c(C(F)F)c3)c2)C(=O)O1 (single isomer, unassigned) [Example 28, (R*)-3-[[5-[3-(Difluoromethyl)-4-fluoro-phenyl]-3-pyridyl]methyl]-5-methyl-oxazolidin-2-one] | 14 |
| CC(C)C1CN(Cc2cncc(-c3ccc(F)c(C(F)F)c3)c2)C(=O)O1 (single isomer, unassigned) [Example 37, (S*)-3-[[5-[3-(Difluoromethyl)-4-fluoro-phenyl]-3-pyridyl]methyl]-5-isopropyl-oxazolidin-2-one] | 50 |
| O=C1OC(CN2CCOCC2)CN1Cc1cncc(-c2ccc(F)c(C(F)F)c2)c1 (single isomer, unassigned) [Example 40, (R*)-3-[[5-[3-(Difluoromethyl)-4-fluoro-phenyl]-3-pyridyl]methyl]-5-(morpholinomethyl)oxazolidin-2-one] | 205 |
| Cc1ncc(-c2ccc(F)c(OC(F)F)c2)cc1CN1C(=O)OCC1C (single isomer, unassigned) [Example 82, (R*)-3-[[5-[3-(Difluoromethoxy)-4-fluoro-phenyl]-2-methyl-3-pyridyl]methyl]-4-methyl-oxazolidin-2-one] | 66 |
| O=C1OCCN1Cc1cncc(-c2ccc(F)c(OC(F)F)c2)c1 [Example 2, 3-[[5-[3-(Difluoromethoxy)-4-fluoro-phenyl]-3-pyridyl]methyl]oxazolidin-2-one] | 12 |
| O=C1OCc2ccccc2N1Cc1cncc(-c2ccc(F)c(OC(F)F)c2)c1 [Example 4, 1-[[5-[3-(Difluoromethoxy)-4-fluoro-phenyl]-3-pyridyl]methyl]-4H-3,1-benzoxazin-2-one] | 123 |

Results, then the compound that gave them:

| IC50 [nM] | Structure (SMILES) |
| --- | --- |
| 20 | CC1COC(=O)N1Cc1cncc(-c2ccc(F)c(OC(F)F)c2)c1 (racemic) [Example 5, (R/S)-3-[[5-[3-(Difluoromethoxy)-4-fluoro-phenyl]-3-pyridyl]methyl]-4-methyl-oxazolidin-2-one] |
| 97 | CC(C)C1CN(Cc2cncc(-c3ccc(F)c(OC(F)F)c3)c2)C(=O)O1 (racemic) [Example 14, (R/S)-3-[[5-[3-(Difluoromethoxy)-4-fluoro-phenyl]-3-pyridyl]methyl]-5-isopropyl-oxazolidin-2-one] |
| 31 | CC1COC(=O)N1Cc1cncc(-c2ccc(F)c(C(F)F)c2)c1 (racemic) [Example 25, (R/S)-3-[[5-[3-(Difluoromethyl)-4-fluoro-phenyl]-3-pyridyl]methyl]-4-methyl-oxazolidin-2-one] |
| 28 | CC1CN(Cc2cncc(-c3ccc(F)c(C(F)F)c3)c2)C(=O)O1 (racemic) [Example 26, (R/S)-3-[[5-[3-(Difluoromethyl)-4-fluoro-phenyl]-3-pyridyl]methyl]-5-methyl-oxazolidin-2-one] |
| 29 | CC(C)C1CN(Cc2cncc(-c3ccc(F)c(C(F)F)c3)c2)C(=O)O1 (racemic) [Example 35, (R/S)-3-[[5-[3-(Difluoromethyl)-4-fluoro-phenyl]-3-pyridyl]methyl]-5-isopropyl-oxazolidin-2-one] |
| 323 | CC(c1cncc(-c2ccc(F)c(C(F)F)c2)c1)N1CCCOC1=O (racemic) [Example 61, (R/S)-3-[1-[5-[3-(difluoromethyl)-4-fluoro-phenyl]-3-pyridyl]ethyl]-1,3-oxazinan-2-one] |
| 22 | Cc1ncc(-c2ccc(F)c(OC(F)F)c2)cc1CN1CC(C)OC1=O (racemic) [Example 80, (R/S)-3-[[5-[3-(Difluoromethoxy)-4-fluoro-phenyl]-2-methyl-3-pyridyl]methyl]-5-methyl-oxazolidin-2-one] |
| 21 | Cc1ncc(-c2ccc(F)c(C(F)F)c2)cc1CN1CC(C)OC1=O (racemic) [Example 94, (R/S)-3-[[5-[3-(Difluoromethyl)-4-fluoro-phenyl]-2-methyl-3-pyridyl]methyl]-5-methyl-oxazolidin-2-one] |
| 113 | Cc1ncc(-c2ccc(F)c(C(F)F)c2)cc1CN1C(=O)OCC1C (racemic) [Example 95, (R/S)-3-[[5-[3-(difluoromethyl)-4-fluoro-phenyl]-2-methyl-3-pyridyl]methyl]-4-methyl-oxazolidin-2-one] |
| 17 | CC1CN(Cc2cncc(-c3ccc(F)c(OC(F)F)c3)c2)C(=O)O1 (single isomer, unassigned) [Example 7, (S*)-3-[[5-[3-(Difluoromethoxy)-4-fluoro-phenyl]-3-pyridyl]methyl]-5-methyl-oxazolidin-2-one] |
| 1350 | O=C1OC(CN2CCOCC2)CN1Cc1cncc(-c2ccc(F)c(OC(F)F)c2)c1 (single isomer, unassigned) [Example 19, (S*)-3-[[5-[3-(Difluoromethoxy)-4-fluoro-phenyl]-3-pyridyl]methyl]-5-(morpholinomethyl)oxazolidin-2-one] |
| 31 | CC(C)C1CN(Cc2cncc(-c3ccc(F)c(C(F)F)c3)c2)C(=O)O1 (single isomer, unassigned) [Example 36, (R*)-3-[[5-[3-(Difluoromethyl)-4-fluoro-phenyl]-3-pyridyl]methyl]-5-isopropyl-oxazolidin-2-one] |
| 751 | O=C1OC(CN2CCOCC2)CN1Cc1cncc(-c2ccc(F)c(C(F)F)c2)c1 (single isomer, unassigned) [Example 41, (S*)-3-[[5-[3-(Difluoromethyl)-4-fluoro-phenyl]-3-pyridyl]methyl]-5-(morpholinomethyl)oxazolidin-2-one] |
| 30 | Cc1ncc(-c2ccc(F)c(OC(F)F)c2)cc1CN1C(=O)OCC1C (single isomer, unassigned) [Example 83, (S*)-3-[[5-[3-(Difluoromethoxy)-4-fluoro-phenyl]-2-methyl-3-pyridyl]methyl]-4-methyl-oxazolidin-2-one] |
| 20 | Cc1ncc(-c2ccc(F)c(OC(F)F)c2)cc1CN1CC(C)OC1=O (stereo in doubt) [Example 86, (5R)-3-[[5-[3-(Difluoromethoxy)-4-fluoro-phenyl]-2-methyl-3-pyridyl]methyl]-5-methyl-oxazolidin-2-one] |
| 3010 | CC(C)[C@H]1COC(=O)N1Cc1cncc(-c2ccc(F)c(OC(F)F)c2)c1 [Example 3, (4S)-3-[[5-[3-(Difluoromethoxy)-4-fluoro-phenyl]-3-pyridyl]methyl]-4-isopropyl-oxazolidin-2-one] |
| 12 | O=C1OC2(CC2)CN1Cc1cncc(-c2ccc(F)c(OC(F)F)c2)c1 [Example 9, 5-[[5-[3-(Difluoromethoxy)-4-fluoro-phenyl]-3-pyridyl]methyl]-7-oxa-5-azaspiro[2.4]heptan-6-one] |
| 521 | CC1(C)CCN(Cc2cncc(-c3ccc(F)c(OC(F)F)c3)c2)C(=O)O1 [Example 10, 3-[[5-[3-(Difluoromethoxy)-4-fluoro-phenyl]-3-pyridyl]methyl]-6,6-dimethyl-1,3-oxazinan-2-one] |
